The values below come from US10301317B2, “Inhibitors of ERK and methods of use” (Kura Oncology, Inc., priority 2013, dated 2019).

The structures appear in SMILES notation. pIC50: −log10 of the molar value. A value given as a limit tells only on which side of the number the result lay.

In one assay the test system is phospho-p90 RSK (RSK1 Thr359/Ser363) in A375 (Braf V600E) cells. Nature of the assay: Phospho-p90 RSK ELISA using A375 (Braf V600E) cells. As to conditions: Homo sapiens, A-375, 2 hours compound treatment, read-out: Cellular Phospho-p90RSK IC50. Format: cell-based.
As to `Cc1cc(-c2n[nH]c3cc4c(cc23)CN([C@@H]2CN(CC(F)(F)F)C[C@H]2c2cccs2)C(=O)N4)ccn1` (mixture of isomers) [Example 321], the pIC50 was no less than 6.60.

Regarding `Cc1cc(-c2n[nH]c3cc4c(cc23)CN([C@@H]2CN(CC(F)F)C[C@H]2c2ccccc2)C(=O)N4)ccn1` (mixture of isomers) [Example 362], the pIC50 was no less than 6.60.

In the case of `Cc1cc(-c2n[nH]c3cc4c(cc23)CN([C@@H]2CN(CC#N)C[C@H]2c2ccccc2)C(=O)N4)ccn1` (mixture of isomers) [Example 366], the pIC50 was no less than 6.60.

With `Cc1cc(-c2n[nH]c3cc4c(cc23)CN([C@@H]2CN(C)C[C@H]2c2ccccc2)C(=O)N4)ccn1` (racemic) [Example 241], the pIC50 was no less than 6.60.

In the case of `Cc1cc(-c2n[nH]c3cc4c(cc23)CN([C@@H]2CN(C)C[C@H]2c2ccccc2)C(=O)N4)cc(C)n1` (racemic) [Example 248], the pIC50 is no less than 6.60.

On to `CCN1C[C@@H](N2Cc3cc4c(-c5ccnc(C)c5)n[nH]c4cc3NC2=O)[C@H](c2ccccc2)C1` (racemic) [Example 278], for which the pIC50 was no less than 6.60.

As to `Cc1cc(-c2n[nH]c3cc4c(cc23)CN([C@@H]2CN(C(C)C)C[C@H]2c2ccccc2)C(=O)N4)ccn1` (racemic) [Example 279], the pIC50 is no less than 6.60.

As for `Cc1cc(-c2n[nH]c3cc4c(cc23)CN([C@@H]2CN(C)C[C@H]2c2ccc(F)cc2)C(=O)N4)cc(C)n1` (racemic) [Example 305], the pIC50 was no less than 6.60.

As to `Cc1cc(-c2n[nH]c3cc4c(cc23)CN([C@@H]2CN(C)C[C@H]2c2ccccc2F)C(=O)N4)cc(C)n1` (racemic) [Example 306], the pIC50 is no less than 6.60.

Take `Cc1cc(-c2n[nH]c3cc4c(cc23)CN([C@@H]2CN(CC(F)(F)F)C[C@H]2c2ccccc2F)C(=O)N4)ccn1` (racemic) [Example 311]: the pIC50 was no less than 6.60.

As for `COc1ccc(-c2n[nH]c3cc4c(cc23)CN(Cc2cc(F)cc(F)c2)C(=O)N4)cn1` [Example 92], the pIC50 was no less than 6.60.

As to `COc1ncc(-c2n[nH]c3cc4c(cc23)CN([C@@H]2CCCN(Cc3ccccc3)C2)C(=O)N4)cn1` [Example 104], the pIC50 was no less than 6.60.

As for `[2H]C([2H])(c1ccccc1)N1CCC[C@@H](N2Cc3cc4c(-c5ccnc(C)c5)n[nH]c4cc3NC2=O)C1` [Example 148], the pIC50 was no less than 6.60.

For `Cc1cc(-c2n[nH]c3cc4c(cc23)CN(CCNCc2ccccc2)C(=O)N4)ccn1` [Example 149], the pIC50 is 6.00 to 6.60.

With `Cc1cc(-c2n[nH]c3cc4c(cc23)CN([C@@H]2CCCN(Cc3ccc(F)cc3)C2)C(=O)N4)ccn1` [Example 151], the pIC50 is less than 6.00.

`Cc1cc(-c2n[nH]c3cc4c(cc23)CN([C@@H]2CCN(CCc3ccccc3)C2)C(=O)N4)ccn1` [Example 153]: the pIC50 is no less than 6.60.

As for `Cc1cc(-c2n[nH]c3cc4c(cc23)CN([C@@H]2CCCN(C(C)c3ccccc3)C2)C(=O)N4)ccn1` (some centres unmarked) [Example 154], the pIC50 is no less than 6.60.

With `Cc1cc(-c2n[nH]c3cc4c(cc23)CN([C@@H]2CCCN(Cc3cccc(Cl)c3)C2)C(=O)N4)ccn1` [Example 156], the pIC50 was no less than 6.60.

Take `Cc1cc(-c2n[nH]c3cc4c(cc23)CN([C@@H]2CCCN(Cc3ccccc3Cl)C2)C(=O)N4)ccn1` [Example 158]: the pIC50 was no less than 6.60.

Take `COc1cccc(F)c1CN1CC[C@@H](N2Cc3cc4c(-c5ccnc(C)c5)n[nH]c4cc3NC2=O)C1` [Example 162]: the pIC50 is no less than 6.60.

Consider `Cc1cc(-c2n[nH]c3cc4c(cc23)CN([C@@H]2CCCN(Cc3cccc(F)c3)C2)C(=O)N4)ccn1` [Example 184], for which the pIC50 is no less than 6.60.

For the molecule `Cc1cc(-c2n[nH]c3cc4c(cc23)CN([C@@H]2CCCN(Cc3cccc(F)c3F)C2)C(=O)N4)ccn1` [Example 185], the pIC50 was no less than 6.60.

On to `Cc1cc(-c2n[nH]c3cc4c(cc23)CN([C@@H]2CCCN(Cc3cc(F)ccc3F)C2)C(=O)N4)ccn1` [Example 187], for which the pIC50 is no less than 6.60.

Regarding `Cc1cc(-c2n[nH]c3cc4c(cc23)CN(CC2CCOCC2)C(=O)N4)ccn1` [Example 211], the pIC50 is no less than 6.60.

`Cc1cc(-c2n[nH]c3cc4c(cc23)CN(CC2CCCC2)C(=O)N4)ccn1` [Example 212]: the pIC50 was no less than 6.60.

The test system of a further assay is A375 cells. The assay is described as follows: Tumor cell line proliferation assay (CellTiter Glo), A375. The assay is classed as cell-based. As to conditions: Homo sapiens, A-375, 96 h, read-out: A375 (V599E) Cell Proliferation IC50.
Take `Cc1cc(-c2n[nH]c3cc4c(cc23)CN([C@@H]2CN(CC(F)(F)F)C[C@H]2c2cccs2)C(=O)N4)ccn1` (mixture of isomers) [Example 321]: the pIC50 was 6.00 to 6.60.

`Cc1cc(-c2n[nH]c3cc4c(cc23)CN([C@@H]2CN(CC(F)F)C[C@H]2c2ccccc2)C(=O)N4)ccn1` (mixture of isomers) [Example 362]: the pIC50 is no less than 6.60.

For `Cc1cc(-c2n[nH]c3cc4c(cc23)CN([C@@H]2CN(CC#N)C[C@H]2c2ccccc2)C(=O)N4)ccn1` (mixture of isomers) [Example 366], the pIC50 is less than 6.00.

As to `Cc1cc(-c2n[nH]c3cc4c(cc23)CN([C@@H]2CN(C)C[C@H]2c2ccccc2)C(=O)N4)ccn1` (racemic) [Example 241], the pIC50 was no less than 6.60.

As to `Cc1cc(-c2n[nH]c3cc4c(cc23)CN([C@@H]2CN(C)C[C@H]2c2ccccc2)C(=O)N4)cc(C)n1` (racemic) [Example 248], the pIC50 was no less than 6.60.

As to `CCN1C[C@@H](N2Cc3cc4c(-c5ccnc(C)c5)n[nH]c4cc3NC2=O)[C@H](c2ccccc2)C1` (racemic) [Example 278], the pIC50 was no less than 6.60.

Regarding `Cc1cc(-c2n[nH]c3cc4c(cc23)CN([C@@H]2CN(C(C)C)C[C@H]2c2ccccc2)C(=O)N4)ccn1` (racemic) [Example 279], the pIC50 is no less than 6.60.

Consider `Cc1cc(-c2n[nH]c3cc4c(cc23)CN([C@@H]2CN(C)C[C@H]2c2ccc(F)cc2)C(=O)N4)cc(C)n1` (racemic) [Example 305], for which the pIC50 was no less than 6.60.

Regarding `Cc1cc(-c2n[nH]c3cc4c(cc23)CN([C@@H]2CN(C)C[C@H]2c2ccccc2F)C(=O)N4)cc(C)n1` (racemic) [Example 306], the pIC50 is no less than 6.60.

Regarding `Cc1cc(-c2n[nH]c3cc4c(cc23)CN([C@@H]2CN(CC(F)(F)F)C[C@H]2c2ccccc2F)C(=O)N4)ccn1` (racemic) [Example 311], the pIC50 was 6.00 to 6.60.

In the case of `COc1ccc(-c2n[nH]c3cc4c(cc23)CN(Cc2cc(F)cc(F)c2)C(=O)N4)cn1` [Example 92], the pIC50 was 6.00 to 6.60.

Take `COc1ncc(-c2n[nH]c3cc4c(cc23)CN([C@@H]2CCCN(Cc3ccccc3)C2)C(=O)N4)cn1` [Example 104]: the pIC50 was no less than 6.60.

Turning to `[2H]C([2H])(c1ccccc1)N1CCC[C@@H](N2Cc3cc4c(-c5ccnc(C)c5)n[nH]c4cc3NC2=O)C1` [Example 148], the pIC50 was no less than 6.60.

For the molecule `Cc1cc(-c2n[nH]c3cc4c(cc23)CN(CCNCc2ccccc2)C(=O)N4)ccn1` [Example 149], the pIC50 is no less than 6.60.

Consider `Cc1cc(-c2n[nH]c3cc4c(cc23)CN([C@@H]2CCCN(Cc3ccc(F)cc3)C2)C(=O)N4)ccn1` [Example 151], for which the pIC50 was no less than 6.60.

With `Cc1cc(-c2n[nH]c3cc4c(cc23)CN([C@@H]2CCN(CCc3ccccc3)C2)C(=O)N4)ccn1` [Example 153], the pIC50 is no less than 6.60.

Take `Cc1cc(-c2n[nH]c3cc4c(cc23)CN([C@@H]2CCCN(C(C)c3ccccc3)C2)C(=O)N4)ccn1` (some centres unmarked) [Example 154]: the pIC50 was no less than 6.60.

Consider `Cc1cc(-c2n[nH]c3cc4c(cc23)CN([C@@H]2CCCN(Cc3cccc(Cl)c3)C2)C(=O)N4)ccn1` [Example 156], for which the pIC50 was no less than 6.60.

As for `Cc1cc(-c2n[nH]c3cc4c(cc23)CN([C@@H]2CCCN(Cc3ccccc3Cl)C2)C(=O)N4)ccn1` [Example 158], the pIC50 is no less than 6.60.

As to `COc1cccc(F)c1CN1CC[C@@H](N2Cc3cc4c(-c5ccnc(C)c5)n[nH]c4cc3NC2=O)C1` [Example 162], the pIC50 was no less than 6.60.

For the molecule `Cc1cc(-c2n[nH]c3cc4c(cc23)CN([C@@H]2CCCN(Cc3cccc(F)c3)C2)C(=O)N4)ccn1` [Example 184], the pIC50 was no less than 6.60.

Take `Cc1cc(-c2n[nH]c3cc4c(cc23)CN([C@@H]2CCCN(Cc3cccc(F)c3F)C2)C(=O)N4)ccn1` [Example 185]: the pIC50 was no less than 6.60.

On to `Cc1cc(-c2n[nH]c3cc4c(cc23)CN([C@@H]2CCCN(Cc3cc(F)ccc3F)C2)C(=O)N4)ccn1` [Example 187], for which the pIC50 is no less than 6.60.

Turning to `Cc1cc(-c2n[nH]c3cc4c(cc23)CN(CC2CCOCC2)C(=O)N4)ccn1` [Example 211], the pIC50 was 6.00 to 6.60.

For `Cc1cc(-c2n[nH]c3cc4c(cc23)CN(CC2CCCC2)C(=O)N4)ccn1` [Example 212], the pIC50 is no less than 6.60.
